In one series the target is Mcl-1 (Homo sapiens, UniProt Q07820). Nature of the series: direct-binding FP of BODIPY-TMR labeled analogs, Mcl-1. Particulars: Table 5, BODIPY-labeled analogues.
For series [1], the target named is T1, Bcl-xL (Homo sapiens, UniProt Q07817). Kind of series: competition FP with fluorescently labeled Bak-BH3 peptide, Bcl-xL. The class given is binding.
For series [2], the target named is T2, proteinase K (Parengyodontium album, UniProt P06873). Nature of the series: proteinase K stability of Puma BH3 peptides.
The target of series [3] is T1, Bcl-xL. Nature of the series: biochemical.
Series [4] deals with T3, envelope glycoprotein of the HIV-1 clone HXB2 (Human immunodeficiency virus type 1 group M subtype B, UniProt P04578).
T3 construct: One cell line expresses HIV-1 Env (processed by cellular proteases to generate gp120+gp41); expressed in transfected cells; host or cells: CHO cells expressing HXB2 env (and Tat); U373-MAGI target cells
Nature of the series: cell-cell fusion assay. Format: cell-based.

The next series has as its target T4, NHR α-peptide 1 (Human immunodeficiency virus type 1 group M subtype B, UniProt P04578).
T4 construct: made in house; host or cells: chemical synthesis (Fmoc solid phase)
Nature of the series: CD thermal unfolding of 1:1 NHR + CHR peptide mixtures. The class given is physicochemical, HIV. The settings on record: Table 2; CD at 222 nm, 1:1 mixture with NHR α-peptide 1, PBS, 20 μM total peptide. How it is done:
The interactions of select α/β-peptides with the gp41 NHR domain were further investigated by circular dichroism (CD) spectroscopy. The CD spectra of 3, 4, 5, 8, 9 and were measured, both alone (see FIG. 5A) and in a 1:1 mixture with NHR α-peptide 1 (see FIGS. 3A, 3B, 3C, and 3D, respectively). See also FIGS. 5B and 5C for the superimposed spectra. […] The magnitude of the CD signatures among the well-folded mixtures (1+3, 1+5 and 1+10, FIGS. 3A, 3C, and 3D, respectively) are similar, but the ratio of intensities at 208 and 222 nm changes as a function of β-residue content (more β-residues tracks with a less intense peak at 222 nm).
The interactions of CHR α-peptide 3 and α/β-peptide analogues 4, 5, 8 and 10 with a peptide derived from the gp41 NHR domain (1) were investigated by circular dichroism (CD) spectroscopy. […] The magnitude of the CD signatures among the well-folded mixtures (1+3, 1+5, 1+8 and 1+10) are similar, but the ratio of intensities at 208 and 222 nm changes as a function of β-residue content (higher β-residue content is correlated with a less intense peak at 222 nm). This trend is consistent with previous studies on helical oligomers containing mixed α/β backbones.
Circular Dichroism Spectroscopy. Circular dichroism measurements were carried out on an Aviv 202SF Circular Dichroism Spectrophotometer. Samples of each peptide were prepared at 20 μM concentration in PBS. Solutions of 1:1 peptide mixtures were prepared by mixing equal volumes from the same 20 μM stock solutions used for individual peptide measurements. Spectra were recorded in a 1 mm cell with a step size of 1 nm and an averaging time of 5 sec. All spectra are background corrected against buffer measured in the same cell. Thermal melts were carried out in 5-degree increments with an equilibration time of 10 min between each temperature change. Thermal unfolding data were fit to a simple two state folding model Shortle, D.; Meeker, A. K.; Freire, E. Biochemistry 1988, 27, 4761-4768) using GraphPad Prism.

A further series relates to HIV-1 NL4-3. Particulars: read-out: Inhibition of HIV-1 infectivity, IC50 (nM), X4 strains, NL4-3; TZM-bl cells; mean ± S.E.M., three experiments.
In a further series the target is gp41-5 (Human immunodeficiency virus type 1 group M subtype B, UniProt P04578, C598G/DEL582-595/DEL601-626/T627G/W596S). Nature of the series: biochemical. The settings on record: competition FP. The class given is binding, HIV.
The next series has as its system HIV-1 HC4. Particulars: read-out: Inhibition of HIV-1 infectivity, IC50 (nM), X4 strains, HC4; TZM-bl cells; mean ± S.E.M., three experiments.
In the next series the test system is HIV-1 CC 1/85. Particulars: read-out: Inhibition of HIV-1 infectivity, IC50 (nM), R5 strains, CC 1/85; TZM-bl cells; mean ± S.E.M., three experiments.
Series [5] concerns the target T2, proteinase K. The settings on record: under the assay conditions.
Series [6] deals with T2, proteinase K. Kind of series: in vitro. The settings on record: proteinase K solution in TBS.
The subject of a further series is HIV-1 DJ258. The settings on record: read-out: Inhibition of HIV-1 infectivity, IC50 (nM), R5 strains, DJ258; TZM-bl cells; mean ± S.E.M., three experiments.
Another series relates to HIV. Particulars: background; read-out: anti-HIV IC50 in cell-based assays; cited from earlier work.
The mark [7] stands for this setting: Table 4, read-out: gp41-5 binding affinity by FP Ki.

Read-outs that look alike come from different tables or passages of the source.

T2 sequence (P06873 106-384): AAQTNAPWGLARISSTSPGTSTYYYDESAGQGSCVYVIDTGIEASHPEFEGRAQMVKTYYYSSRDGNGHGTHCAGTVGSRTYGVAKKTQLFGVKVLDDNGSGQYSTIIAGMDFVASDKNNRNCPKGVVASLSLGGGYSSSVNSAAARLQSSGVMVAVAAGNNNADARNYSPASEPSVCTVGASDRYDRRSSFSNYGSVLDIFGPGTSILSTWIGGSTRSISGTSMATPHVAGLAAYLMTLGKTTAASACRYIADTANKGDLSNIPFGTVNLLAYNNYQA
T1 sequence (Q07817 whole entry, species assumed): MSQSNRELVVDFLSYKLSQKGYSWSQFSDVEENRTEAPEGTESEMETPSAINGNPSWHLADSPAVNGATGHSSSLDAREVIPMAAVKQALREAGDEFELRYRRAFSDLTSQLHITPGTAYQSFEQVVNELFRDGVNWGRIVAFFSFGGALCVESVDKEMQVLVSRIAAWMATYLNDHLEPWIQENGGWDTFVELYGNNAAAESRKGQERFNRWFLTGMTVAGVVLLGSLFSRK
Chain of Mcl-1 (Q07820 whole entry, species assumed): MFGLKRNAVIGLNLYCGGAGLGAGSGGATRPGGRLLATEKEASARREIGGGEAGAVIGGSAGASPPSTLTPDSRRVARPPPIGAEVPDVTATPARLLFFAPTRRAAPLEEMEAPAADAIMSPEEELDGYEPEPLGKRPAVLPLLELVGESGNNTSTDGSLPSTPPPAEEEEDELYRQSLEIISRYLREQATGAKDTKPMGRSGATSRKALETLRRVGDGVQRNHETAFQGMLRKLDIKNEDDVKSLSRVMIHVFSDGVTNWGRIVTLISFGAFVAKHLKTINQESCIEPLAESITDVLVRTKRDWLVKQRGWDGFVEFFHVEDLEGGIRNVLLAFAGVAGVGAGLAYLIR

Broadly, the half-life is how long it takes for the measured level to halve. Read a high half-life as slow loss. What is called Kd is the constant that tells how readily two partners part at equilibrium. A higher Kd goes with a looser complex. The term Ki denotes the dissociation constant of the complex between target and ligand, obtained from inhibition or displacement. Take `CC[C@H](C)[C@H](NC(=O)[C@H](CCC(=O)O)NC(=O)C[C@H](CCCNC(=N)N)NC(=O)[C@H](C)NC(=O)[C@H](Cc1c[nH]c2ccccc12)NC(=O)C[C@H](CCC(N)=O)NC(=O)[C@H](CCC(=O)O)NC(=O)[C@H](CCC(=O)O)NC(C)=O)C(=O)NCC(=O)N[C@@H](C)CC(=O)N[C@@H](CCC(N)=O)C(=O)N[C@@H](CC(C)C)C(=O)N[C@@H](CCCNC(=N)N)CC(=O)N[C@@H](CCCNC(=N)N)C(=O)N[C@@H](CCSC)C(=O)N[C@@H](C)C(=O)N[C@@H](CC(=O)O)CC(=O)N[C@@H](CC(=O)O)C(=O)N[C@@H](CC(C)C)C(=O)N[C@@H](CC(N)=O)CC(=O)N[C@@H](C)C(=O)N[C@@H](CCC(N)=O)C(=O)N[C@@H](Cc1ccc(O)cc1)C(=O)N[C@@H](CCC(=O)O)CC(=O)N[C@@H](CCCNC(=N)N)C(=O)N[C@@H](CCCNC(=N)N)C(N)=O` [2′]: the half-life at 50 μm in “in vitro” was 100 min; at proteinase K [2], greater than 3000 min. Also, the results for the Kd at Mcl-1 and at Bcl-xL [3] were 110 nM and 2.2 nM, respectively. Moreover, the inhibition constant Ki on Bcl-xL [1] was less than 1 nM.

In the case of `CC[C@H](C)[C@H](NC(=O)C[C@H](CCC(=O)O)NC(=O)[C@H](CCCNC(=N)N)NC(=O)[C@H](C)NC(=O)[C@H](Cc1c[nH]c2ccccc12)NC(=O)C[C@H](CCC(N)=O)NC(=O)[C@H](CCC(=O)O)NC(=O)[C@H](CCC(=O)O)NC(C)=O)C(=O)NCC(=O)N[C@@H](C)CC(=O)N[C@@H](CCC(N)=O)C(=O)N[C@@H](CC(C)C)C(=O)N[C@@H](CCCNC(=N)N)C(=O)N[C@@H](CCCNC(=N)N)CC(=O)N[C@@H](CCSC)C(=O)N[C@@H](C)C(=O)N[C@@H](CC(=O)O)CC(=O)N[C@@H](CC(=O)O)C(=O)N[C@@H](CC(C)C)C(=O)N[C@@H](CC(N)=O)C(=O)N[C@@H](C)CC(=O)N[C@@H](CCC(N)=O)C(=O)N[C@@H](Cc1ccc(O)cc1)C(=O)N[C@@H](CCC(=O)O)CC(=O)N[C@@H](CCCNC(=N)N)C(=O)N[C@@H](CCCNC(=N)N)C(N)=O` [3′], the half-life at 50 μm in the series “in vitro” was 3.5 min; at proteinase K [2], 170 min.

On to `CC[C@H](C)[C@H](NC(=O)[C@H](C)NC(=O)[C@H](CCCNC(=N)N)NC(=O)[C@H](CC(=O)O)NC(=O)[C@H](Cc1c[nH]c2ccccc12)NC(=O)[C@H](C)NC(=O)[C@H](CCC(=O)O)NC(=O)[C@H](Cc1c[nH]c2ccccc12)NC(=O)[C@@H](NC(=O)[C@@H](NC(C)=O)[C@@H](C)O)[C@@H](C)O)C(=O)N[C@@H](C)C(=O)N[C@@H](CCC(=O)O)C(=O)N[C@@H](Cc1ccc(O)cc1)C(=O)N[C@@H](C)C(=O)N[C@@H](C)C(=O)N[C@@H](CCCNC(=N)N)C(=O)N[C@H](C(=O)N[C@@H](CCC(=O)O)C(=O)N[C@@H](C)C(=O)N[C@@H](CC(C)C)C(=O)N[C@H](C(=O)N[C@@H](CCCNC(=N)N)C(=O)N[C@@H](C)C(=O)N[C@@H](C)C(=O)N[C@@H](CCC(N)=O)C(=O)N[C@@H](CCC(=O)O)C(=O)N[C@@H](CCC(N)=O)C(=O)N[C@@H](CCC(N)=O)C(=O)N[C@@H](CCC(=O)O)C(=O)N[C@@H](CCCCN)C(=O)N[C@@H](CC(N)=O)C(=O)N[C@@H](CCC(=O)O)C(=O)N[C@@H](C)C(=O)N[C@@H](C)C(=O)N[C@@H](CC(C)C)C(=O)N[C@@H](CCCNC(=N)N)C(=O)N[C@@H](CCC(=O)O)C(=O)N[C@@H](CC(C)C)C(N)=O)[C@@H](C)CC)[C@@H](C)CC` [compound 3, reference compound], for which the IC50 in series [4] is 9 ± 3 nM; in the series on HIV-1 NL4-3 it was 5 ± 0.6 nM; in the series on HIV-1 HC4, 27 ± 4 nM; in the series with HIV-1 CC 1/85, 140 ± 20 nM; in the series with HIV-1 DJ258, 58 ± 6 nM. The “NHR + CHR Tm (° C.)” value at NHR α-peptide 1 stood at 77 °C. Further, the Ki is no more than 0.2 nM at gp41-5 (Table 2, read-out: gp41-5 Ki); less than 0.2 nM at gp41-5 (setting [7]); less than 0.2 nM at gp41-5 (read-out: Ki for gp41-5). The “degradation by proteinase K” value on proteinase K [5] is given as “completely degraded within minutes”. The half-life at 20 μM on proteinase K [6] (Tritirachium album (source organism of proteinase K)) and at proteinase K [6] was 0.7 min throughout.

With `CC[C@H](C)[C@H](NC(=O)[C@H](C)NC(=O)[C@H](CCCNC(=N)N)NC(=O)[C@H](CC(=O)O)NC(=O)[C@H](Cc1c[nH]c2ccccc12)NC(=O)[C@H](C)NC(=O)[C@H](CCC(=O)O)NC(=O)[C@H](Cc1c[nH]c2ccccc12)NC(=O)[C@@H](NC(=O)[C@@H](NC(C)=O)[C@@H](C)O)[C@@H](C)O)C(=O)N[C@@H](C)C(=O)N[C@@H](CCC(=O)O)C(=O)N[C@@H](Cc1ccc(O)cc1)C(=O)N[C@@H](C)C(=O)N[C@@H](C)C(=O)N[C@@H](CCCNC(=N)N)C(=O)N[C@H](C(=O)N[C@@H](CCC(=O)O)C(=O)N[C@@H](C)C(=O)N[C@@H](CC(C)C)C(=O)N[C@H](C(=O)N[C@@H](CCCNC(=N)N)CC(=O)N[C@@H](C)C(=O)N[C@@H](C)C(=O)N[C@@H](CCC(N)=O)C(=O)N[C@@H](CCC(=O)O)CC(=O)N[C@@H](CCC(N)=O)C(=O)N[C@@H](CCC(N)=O)C(=O)N[C@@H](CCC(=O)O)CC(=O)N[C@@H](CCCCN)C(=O)N[C@@H](CC(N)=O)C(=O)N[C@@H](CCC(=O)O)C(=O)N[C@@H](C)CC(=O)N[C@@H](C)C(=O)N[C@@H](CC(C)C)C(=O)N[C@@H](CCCNC(=N)N)CC(=O)N[C@@H](CCC(=O)O)C(=O)N[C@@H](CC(C)C)C(N)=O)[C@@H](C)CC)[C@@H](C)CC` [compound 5], the IC50 is 7 ± 2 nM in [4]; 10 ± 2 nM in the series with HIV-1 NL4-3; 55 ± 8 nM in the series with HIV-1 HC4; 270 ± 20 nM in the series on HIV-1 CC 1/85; 280 ± 90 nM in the series with HIV-1 DJ258. The “NHR + CHR Tm (° C.)” value at NHR α-peptide 1 amounted to 69 °C. Further, the Ki at gp41-5 (Table 2, read-out: gp41-5 Ki) is 0.2 nM; on gp41-5 (setting [7]), less than 0.2 nM.

Turning to enfuvirtide, the IC50 was 700 ± 100 nM in the series on HIV-1 NL4-3; roughly 1 nM in the series on HIV; 250 ± 20 nM with HIV-1 HC4; 1400 ± 400 nM in the series on HIV-1 CC 1/85; 330 ± 60 nM in the series with HIV-1 DJ258.
